We go through 86 compounds from a melting point compilation (Tetko et al.; mined from patent text by program, amines drawn as free bases though some values may be those of a salt).

For the compound `CC(C)Cc1nn(C)c(=O)c2c(SCCCO)c(Cc3ccccc3)sc12`, the melting point (usually the temperature of the solid-liquid transition) is 60 to 65 °C.

`COC(=O)[C@H]1CC[C@H](NC(=O)c2cc(-c3ccc(C#N)cc3)nn(Cc3ccccc3)c2=O)CC1` showed a melting point of 217 to 220 °C.

On to `CC(ON1C(C)(C)CC2(CC1(C)C)OCC(C)(C)CO2)c1ccc(C(=O)c2ccccc2)cc1` (stereo unspecified), for which the melting point lay within 104 to 117 °C.

In the case of `O=C1CCNC(=O)C1C(=O)c1ccc(Cl)cc1[N+](=O)[O-]` (stereo unspecified), the melting point was in the range of 161 to 164 °C.

With `CCOCc1nc2c(N)nc3cc(N4CCCC4=O)ccc3c2n1CC(C)(C)O`, the melting point was in the range of 200 to 202 °C.

As for `COc1cc2c(cc1OC)C(O)C(N1CCC(N3c4ccccc4NC3C)CC1)C2` (stereo unspecified), the melting point lay in the range of 255 to 256 °C.

As for `CC(C)NC(=O)CN1CCN(CC2CSC3=C(O2)c2ccccc2C(=O)C3=O)CC1` (stereo unspecified), the melting point fell in the range of 85 to 87 °C.

`O=S(=O)(c1ccc(F)cc1)c1ccc(S)cc1` gave a melting point of 116 °C.

Compound `COc1cc2c(cc1-c1cncs1)-c1c(-c3cncs3)c3c(n1CC2)C(=O)N(C(C)(C)C)CCOC3` yielded a melting point of 254 to 255 °C.

`CCCn1c(=O)c2nc(-c3cccc(/C=C/C(=O)O)c3)[nH]c2n(CC2CCCCC2)c1=O` gave a melting point of more than 350 °C.

In turn, `COc1c(C)c(C)c(OC)c(Cn2ccnc2)c1C` came in with a melting point of 82 to 83 °C.

Compound `Cc1noc(-c2ccc(F)cc2)c1-c1ccc(S(N)(=O)=O)cc1` came in with a melting point of 174 to 175 °C.

`COc1ccc(-c2nccc(C)c2OC2SCC(O)C(O)C2O)cc1` (stereo unspecified) registered a melting point of 101 °C.

Turning to `Nc1ncnc2c1nc(NCCP(=O)(O)O)n2C1OC(CO)C(O)C1O` (stereo unspecified), the melting point worked out at 175 °C.

`O=C(Nc1ccc(OC(F)(F)F)cc1)NC1CCN(C(=O)c2cc(O)c(O)c(O)c2)CC1`: the melting point was in the range of 168 to 175 °C.

In turn, `CCOC(=O)c1ccc(OCCc2c[nH]cn2)cc1` showed a melting point of 160 to 164 °C.

Compound `COc1ccc2ccc(N3C(=O)c4ccccc4C3CC(O)CCC(C)C)nc2n1` (stereo unspecified) gave a melting point of 110 °C.

Take `Cc1c(C)c(Cl)c2ccccc2c1Cl`: the melting point was 142 °C.

On to `CC(CC(=O)O)C(=O)N1CCC[C@H]1C(=O)O` (stereo partly specified), for which the melting point fell in the range of 132 to 133 °C.

Turning to `COC(=O)CN1C(=O)CN=C(c2ccccc2)c2cc(Cl)ccc21`, the melting point lay in the range of 137 to 138 °C.

Turning to `O=c1[nH]c2ccccc2n1CCN1CCNCC1`, the melting point was found to be 123 °C.

The compound `OC1CSC(Oc2cncc(-c3ccc(F)c(F)c3)c2)C(O)C1O` (stereo unspecified) returned a melting point of 198 to 203 °C.

The compound `O=C1Cc2cc(Br)ccc2Oc2cc(O)cc(O)c21` had a melting point of 112 to 117 °C.

As to `Oc1ccc(N2CCN(Cc3c[nH]c4ncccc34)CC2)cc1`, the melting point was 197 to 200 °C.

`CC1(C)CC(=O)C2=C(C1)NC1=C(C(=O)CC(C)(C)C1)C2c1cccc(Oc2ncccn2)c1` had a melting point of 220 to 221 °C.

As to `COC(=O)C(CC(F)(F)F)Nc1nc(-c2ccc(Br)cc2)cs1` (stereo unspecified), the melting point was in the range of 113 to 114 °C.

In turn, `COC(=O)C(=CN(C)C)N(C)c1nccc(-c2ccccc2)n1` had a melting point of 101 °C.

For the compound `Cn1c(=O)c2sccc2n2cnc(-c3nc(C4CC4)no3)c12`, the melting point fell in the range of 206 to 207 °C.

On to `CCCCCS(=O)(=O)NC(=O)/C=C/c1ccc(OCC(C)=O)cc1Oc1ncc(C(F)(F)F)cc1Cl`, for which the melting point is 187 to 188 °C.

Consider `CC(C)(C)OC(=O)c1ccc(OCCCCl)cc1`, for which the melting point was 57.5 to 58.5 °C.

The compound `COC(=O)c1ccc(-c2ccc(Cl)cc2)c(-c2ccc(Cl)cc2Cl)c1` returned a melting point of 136 °C.

Take `CCOCc1nc2c(N)nc3cc(-c4cccnc4)ccc3c2n1CC(C)(C)OCCS(C)(=O)=O`: the melting point fell in the range of 202 to 204 °C.

The compound `Cc1oc(-c2ccco2)nc1/C=C/c1ccc(/C=C/C=C/C=O)cc1` came in with a melting point of 179 to 180 °C.

The compound `O=C(O)C[C@H]1C[C@@H](CCCCCCc2ccc(Cl)cc2Cl)OC1=O` (relative stereo) showed a melting point of 57 to 59 °C.

In turn, `O=C(CCc1ccccc1)Nc1cc(-c2ccccc2)[nH]n1` showed a melting point of 168 to 170 °C.

With `CC(C)(C)OC(=O)c1ccc(OCCNC(=O)C2Cc3ccccc3N2S(=O)(=O)c2ccc(-c3ccc(F)cc3Cl)cc2)cc1` (stereo unspecified), the melting point turned out to be 78 °C.

`CCC(=O)NC1=NN(c2ccc(F)cc2)C(C)C1` (stereo unspecified) yielded a melting point of 125 to 126 °C.

`NC(=O)Nc1ccc2c(c1)C(=O)C1(CC1)O2` displayed a melting point of 250 to 252 °C.

As to `Cc1cc(C)c(Nc2nc(C)ncc2S(=O)(=O)c2ccc(O)cc2)c(C)c1`, the melting point was 246 to 248 °C.

As for `O=P1(O)Oc2c(Cl)cc(Cl)cc2-c2ccc(Cl)cc21`, the melting point turned out to be 260 °C.

In turn, `CCOC(=O)c1cn(Cc2ccccc2)nc1NC(=O)NCc1ccccc1` yielded a melting point of 82 to 83 °C.

In the case of `COc1ccc(CCN2CCc3cc(O)c(OC)cc3C2)cc1`, the melting point lay within 170 to 171 °C.

`CSc1ccc2c(c1)C=C(C(=O)O)C(C(F)(F)F)O2` (stereo unspecified) showed a melting point of 166 to 168 °C.

`CONC(=O)[C@@H](Cc1ccccc1)NC(=O)OC` registered a melting point of 154 to 155 °C.

On to `COC(=O)c1ncn2c3cccc(Cl)c3c(=O)n(C)c12`, for which the melting point lay within 210 to 220 °C.

`CC(C)c1cccc(C(C)C)c1-n1nnn(C(C)C)c1=O` returned a melting point of 60 to 62 °C.

In the case of `COc1cc(OC)cc(N2CCN(C(=S)Nc3cc4ccccc4nc3C)CC2)c1`, the melting point lay within 211 to 212 °C.

The compound `Nc1cc(OCC(O)CO)ccc1[N+](=O)[O-]` (stereo unspecified) registered a melting point of 139 °C.

For `CN(C)C1(Cc2ccccc2)CCC(c2[nH]c3ccccc3c2CC2CCCCC2)CC1` (stereo unspecified), the melting point lay in the range of 120 to 126 °C.

Compound `CC(=O)NC(=Cc1c[nH]c2cc(C)ccc12)C(=O)O` displayed a melting point of 204 to 206 °C.

Compound `O=C(c1ccc(Nc2ccnc3cc(C(F)(F)F)ccc23)cc1)N1CC=C(c2ccc(Cl)cc2)CC1` yielded a melting point of 225 to 226 °C.

`COC(=O)c1c(OC)ccc2ccccc12` yielded a melting point of 175 to 176 °C.

Regarding `O=C1Nc2cccnc2N(C(=O)NCCN2CCCCC2CN2CCCCCC2)c2ccccc21` (stereo unspecified), the melting point is 156 to 158 °C.

In turn, `Cn1cc(C(=O)NCCCO)c(Nc2ccc(Br)cc2F)cc1=O` gave a melting point of 78 to 83 °C.

As to `CN(Cc1ccc(NC(=O)C2=Cc3cc(-c4ccc5c(c4)CCO5)ccc3S(=O)(=O)CC2)cc1)C1CCOCC1`, the melting point was in the range of 214 to 216 °C.

As to `COC(=O)C(C(=O)OC)c1c(C(=O)OCc2ccc(OC)cc2)cc([N+](=O)[O-])c2ccccc12`, the melting point is 124 to 125 °C.

`CC(=O)Oc1ccc(C(=O)c2nc3ccc(OC(C)=O)cc3s2)cc1` gave a melting point of 183 °C.

Consider `CSc1nc(O)cc(O)n1`, for which the melting point is more than 250 °C.

Take `CC(C)(OC(=O)CCc1nc(-c2ccc(Cl)cc2)co1)c1ccccc1`: the melting point fell in the range of 94 to 95 °C.

The compound `CC(=NC1CCCCC1)NC12CC3CC(CC(C3)C1)C2` came in with a melting point of 185 to 187 °C.

On to `CC(C)(C)[Si](C)(C)O[C@H](/C=C/[C@@H]1[C@H]2CC(=O)O[C@H]2C[C@H]1O[Si](C)(C)C(C)(C)C)COc1cccc(C(F)(F)F)c1`, for which the melting point is 91 to 93 °C.

`COc1cn(-c2cc(-c3cnn(C)c3)ccc2F)nc(-c2ccnn2-c2ccccc2)c1=O` returned a melting point of 93 to 102 °C.

Compound `O=S(=O)(Nc1ccc2c(OCc3ccc(-c4cccc(Cl)c4)cc3)cccc2c1)C(F)(F)F` showed a melting point of 170 to 171 °C.

Take `CCCc1nn(-c2ccc(C(F)(F)F)cn2)cc1CCCOc1ccc(CCC(=O)O)cc1`: the melting point is 118 to 119 °C.

As to `O=C(O)c1ccnc2[nH]c(CCc3ccccc3)cc12`, the melting point was more than 300 °C.

In turn, `C=CCc1c(F)ccc2c3c([nH]c12)C(CC)(CC(=O)O)OCC3` (stereo unspecified) showed a melting point of 123 to 125 °C.

As for `COC(=O)N1CCC(c2nn(-c3ccc(F)cc3)c3ccccc23)CC1`, the melting point was 95 to 97 °C.

Compound `COc1ccc(CNc2c(OCCC(O)c3ccc(Cl)cc3)n[nH]c(=O)c2Br)cc1OC` (stereo unspecified) returned a melting point of 190 to 196 °C.

Take `Nc1nc2c(sc(=S)n2C2OC(COC(=O)c3ccccc3)C(OC(=O)c3ccccc3)C2OC(=O)c2ccccc2)c(=O)[nH]1` (stereo unspecified): the melting point fell in the range of 230 to 233 °C.

Consider `CC(C)Oc1cc(-n2c(=O)[nH]c(CF)c(F)c2=O)c(F)cc1Cl`, for which the melting point lay within 152 to 154 °C.

With `COc1cc(C(C)N(O)C(N)=O)cc(OC)c1OC(C)c1ccccc1` (stereo unspecified), the melting point was in the range of 129 to 132 °C.

Compound `O=[N+]([O-])c1cnc2ccc(SC(F)F)cc2c1-c1ccccc1` returned a melting point of 101 to 103 °C.

`COc1cc(-c2cc(C(F)(F)F)nn2-c2ccc(S(C)(=O)=O)cc2)ccc1-c1cscn1` came in with a melting point of 164 to 166 °C.

Turning to `Clc1c2nc3ccccc3c-2[nH]c2ccccc12`, the melting point is 220 to 222 °C.

`Nc1ccc(OC(F)(F)F)cc1C=O` came in with a melting point of 42 to 44 °C.

`COc1ccccc1C1CC=NN1C(=O)c1cccnc1` (stereo unspecified) came in with a melting point of 93 to 95 °C.

As to `CCN(CC)C(=O)COc1nc(-c2ccccc2)nc2ccccc12`, the melting point was 113 °C.

In the case of `Clc1cccc(C(c2ccnc3ccccc23)n2ccnc2)c1` (stereo unspecified), the melting point was found to be 184 °C.

For `CN1Cc2cccc3c2c(cn3C)S1(=O)=O`, the melting point came out at 190 °C.

For `COc1ccc(C(=O)Nc2ccc(Cl)c(Cl)c2)cc1NC(=S)Nc1cc(Cl)cc(Cl)c1`, the melting point fell in the range of 189 to 191 °C.

`CC(=O)C(Cl)=NNc1ccc(Oc2ccccc2)cc1` came in with a melting point of 108 to 111 °C.

In the case of `BrCCc1nc(-c2ccccc2)c(-c2ccccc2)o1`, the melting point lay within 72 to 74 °C.

Consider `CNc1cc(Oc2ccc3c(C(=O)Nc4cccc(C(F)(F)F)c4)cncc3c2)ncn1`, for which the melting point lay within 205 to 208 °C.

For the compound `CCN1C(=O)C(NC(=O)C(F)(F)F)CCc2c1ccc(Nc1ncc(Cl)c(Nc3ccccc3S(=O)(=O)N(C)C)n1)c2OC` (stereo unspecified), the melting point was in the range of 250 to 251 °C.

`COc1ccc2c(c1)C(C(=O)N(Cc1ccc(N(C)C)cc1)c1ccc(C(C)C)cc1)CCO2` (stereo unspecified) came in with a melting point of 82 to 84 °C.

Consider `CC(C)CC(=O)Nc1cccc(-c2ccnc3c(-c4ccc5c(c4)OCO5)cnn23)c1`, for which the melting point lay in the range of 172 to 173 °C.
